Results from the supplement of paper PMC10331698.
± gives the standard deviation of the averaged measurements.

Columns and labels:
Assay in all cases: level (log10 ratio to DMSO vehicle control); higher = higher biomarker level / cell amount than vehicle control
Perfluoroundecanoic acid = compound: O=C(O)C(F)(F)C(F)(F)C(F)(F)C(F)(F)C(F)(F)C(F)(F)C(F)(F)C(F)(F)C(F)(F)C(F)(F)F [Perfluoroundecanoic acid] (in DMSO); conditions: 6700 nM
Method: (§1)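 BioMAP Diversity Plus panel of 12 human primary cell co-culture systems (3C, 4H, LPS, SAg, BT, BF4T, BE3C, CASM3C, HDF3CGF, KF3CT, MyoF, Mphg). Compounds were added 1 h before stimulation and left for 24 h (MyoF 48 h; BT 72 h for soluble read-outs or 6 d for IgG). Biomarkers were read by ELISA, cytotoxicity by SRB, PBMC viability and proliferation by Alamar Blue. Each well value was divided by the mean of 8 DMSO control wells on the same plate and log10 transformed; duplicate blinded samples were tested at 4 concentrations.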

[1] = compound: CO[Si](C)(CCC(F)(F)C(F)(F)C(F)(F)C(F)(F)C(F)(F)C(F)(F)F)OC [Dimethoxymethyl((perfluorohexyl)ethyl)silane] (in DMSO)
Method: as §1

[2] = compound: O=S(=O)(O)CCC(F)(F)C(F)(F)C(F)(F)C(F)(F)C(F)(F)C(F)(F)C(F)(F)C(F)(F)F [8:2 Fluorotelomer sulfonic acid] (in DMSO)
Method: as §1

[3] = compound: NS(=O)(=O)C(F)(F)C(F)(F)C(F)(F)C(F)(F)C(F)(F)C(F)(F)C(F)(F)C(F)(F)F [Perfluorooctanesulfonamide] (in DMSO)
Method: as §1

[4] = compound: O=C(O)C(F)(F)C(F)(F)C(F)(F)OC(F)(F)F [Perfluoro(4-methoxybutanoic) acid] (in DMSO)
Method: as §1

[5] = compound: O=S(=O)(O)C(F)(F)C(F)(F)C(F)(F)C(F)(F)C(F)(F)C(F)(F)C(F)(F)F [Perfluoroheptanesulfonic acid] (in DMSO)
Method: as §1

[6] = compound: O=C(O)C=C(C(F)(F)F)C(F)(F)F [3,3-Bis(trifluoromethyl)-2-propenoic acid] (in DMSO)
Method: as §1

Test System	level (log10) (Perfluoroundecanoic acid)	level (log10) ([1]; 6700 nM)	level (log10) ([1]; 20000 nM)	level (log10) ([2]; 6700 nM)	level (log10) ([2]; 20000 nM)	level (log10) ([2]; 60000 nM)	level (log10) ([3]; 6700 nM)	level (log10) ([3]; 20000 nM)	level (log10) ([4]; 6700 nM)	level (log10) ([4]; 20000 nM)	level (log10) ([4]; 60000 nM)	level (log10) ([5]; 1500 nM)	level (log10) ([5]; 4400 nM)	level (log10) ([5]; 13000 nM)	level (log10) ([5]; 40000 nM)	level (log10) ([6]; 6700 nM)	level (log10) ([6]; 20000 nM)	level (log10) ([6]; 60000 nM)
CASM3C:CD142/Tissue Factor	-0.066 ± 0.041	-0.001 ± 0.011	-0.0075 ± 0.005	-0.045 ± 0.0042	-0.067 ± 0.027	-0.0195 ± 0.03	0.021 ± 0.011	0.082 ± 0.04	0.0005 ± 0.018	-0.0175 ± 0.011	-0.051 ± 0.018	-0.0305 ± 0.035	-0.0125 ± 0.019	-0.026 ± 0.024	-0.04 ± 0.068	0.055 ± 0.018	-0.009 ± 0.041	-0.0635 ± 0.06
lMphg:CD106/VCAM-1	-0.004 ± 0.0057	0.009 ± 0.021	-0.009 ± 0.028	-0.0355 ± 0.005	-0.042 ± 0.0071	-0.08 ± 0.0057	0.006 ± 0.014	0.0365 ± 0.0021	0.0015 ± 0.0035	-0.0015 ± 0.022	-0.0085 ± 0.021	-0.0135 ± 0.0035	-0.0285 ± 0.021	-0.0115 ± 0.016	-0.019 ± 0.0014	-0.0205 ± 0.005	-0.025 ± 0.0099	-0.0935 ± 0.0064
MyoF:Collagen IV	0.57 ± 0.013	0.0085 ± 0.018	0.038 ± 0.0028	-0.0215 ± 0.019	-0.0335 ± 0.036	0.005 ± 0.0099	0.118 ± 0.015	0.28 ± 0.028	-0.0165 ± 0.0021	-0.0125 ± 0.0035	0.016 ± 0.027	0.013 ± 0.018	-0.017 ± 0.0057	-0.012 ± 0.013	0.0025 ± 0.023	-0.0215 ± 0.029	-0.055 ± 0.025	-0.0345 ± 0.028
MyoF:alpha-SM Actin	-0.061 ± 0.0085	-0.0045 ± 0.0064	-0.018 ± 0.018	0.034 ± 0.02	0.001 ± 0.014	-0.0125 ± 0.025	-0.0355 ± 0.037	-0.63 ± 0.1	0.025 ± 0.028	-0.0045 ± 0.028	-0.002 ± 0.0057	0.0025 ± 0.1	0.0035 ± 0.077	-0.021 ± 0.064	0.0025 ± 0.069	-0.003 ± 0.054	-0.01 ± 0.067	-0.0795 ± 0.044
MyoF:Decorin	-0.026 ± 0.035	-0.0005 ± 0.0021	0.029 ± 0.034	0.0555 ± 0.029	0.024 ± 0.03	-0.001 ± 0.0014	0.0265 ± 0.053	0.031 ± 0.037	-0.024 ± 0.041	0.0175 ± 0.079	-0.0075 ± 0.063	-0.0075 ± 0.015	-0.006 ± 0.0042	0.009 ± 0.0014	0.0615 ± 0.011	-0.0275 ± 0.0021	-0.043 ± 0.024	-0.057 ± 0.045
HDF3CGF:Collagen I	-0.0645 ± 0.03	0.0095 ± 0.077	0.052 ± 0.038	0.007 ± 0.038	0.0195 ± 0.049	-0.0455 ± 0.17	0.08 ± 0.037	-0.0535 ± 0.046	-0.0125 ± 0.015	0.0115 ± 0.049	0.033 ± 0.061	-0.0005 ± 0.011	-0.0075 ± 0.021	-0.0105 ± 0.025	0.021 ± 0.075	-0.031 ± 0.0028	-0.041 ± 0.02	-0.03 ± 0.038
CASM3C:CD106/VCAM-1	-0.032 ± 0.034	-0.0265 ± 0.012	-0.0155 ± 0.005	0.0015 ± 0.029	-0.0425 ± 0.025	-0.071 ± 0.033	-0.0185 ± 0.0021	-0.0405 ± 0.037	-0.0045 ± 0.057	-0.0015 ± 0.042	-0.008 ± 0.035	0.0085 ± 0.057	0.0125 ± 0.0035	0.0055 ± 0.05	-0.0355 ± 0.0035	-0.152 ± 0.012	-0.216 ± 0.021	-0.284 ± 0.054
HDF3CGF:CD106/VCAM-1	-0.213 ± 0.044	-0.0175 ± 0.00071	0.001 ± 0.0085	0.0015 ± 0.091	0.007 ± 0.073	-0.072 ± 0.045	-0.147 ± 0.027	-0.364 ± 0.023	-0.01 ± 0.027	-0.0185 ± 0.011	-0.036 ± 0.059	-0.0245 ± 0.039	-0.024 ± 0.0042	-0.0585 ± 0.0064	-0.101 ± 0.0092	-0.0485 ± 0.021	-0.0795 ± 0.005	-0.17 ± 0.013
